According to patent EP4371556B1, “ANGIOTENSIN(1-7) PHARMACEUTICAL COMPOSITIONS FOR INHALATION” (Explicat Pharma GmbH, priority 2022, dated 2026):

Experiment: Phase solubility analysis (Higuchi-Connors plot) with HPβCD
Assay type: physicochemical
Settings: different concentrations of HPβCD in isotonic saline solutions
Text: In an attempt to solubilize the peptide, the effect of cyclodextrins was investigated. In particular, HPβCD, a cyclodextrin presented as preferable in most of the literature described above and used in composition for inhalation by Magalhães et al., was selected for testing. […] The skilled person is familiar with Higuchi-Connors plots and how to obtain them, as described, e.g., in Higuchi T. and Connors, Advances in Analytical Chemistry and Instrumentation, 1965, 177-212.

solubilising effect of HPβCD on AT1-7: substantially no solubilising effect
Structure (SMILES): CC[C@H](C)[C@H](NC(=O)[C@H](Cc1ccc(O)cc1)NC(=O)[C@@H](NC(=O)[C@H](CCCNC(=N)N)NC(=O)[C@@H](N)CC(=O)O)C(C)C)C(=O)N[C@@H](Cc1c[nH]cn1)C(=O)N1CCC[C@H]1C(=O)O [AT1-7, Asp-Arg-Val-Tyr-Ile-His-Pro]
